Literature values as cited in patent US9795640B2, “Controlling appetite, promoting weight loss, reducing body fat, and/or improving glucose tolerance” (VANDERBILT UNIVERSITY, priority 2011, dated 2017).

Settings: intraperitoneal administration; for obesity: animals fed a high-fat diet

SMILES | food intake | obesity
CCCCCCCC/C=C\CCCCCCCC(=O)NCCO [OEA, N-oleoyl-ethanolamide] | markedly reduces | markedly reduces
CCCCCCCCCCCCCCCCCC(=O)NCCO [SEA, N-stearoyl-ethanolamide] | markedly reduces | markedly reduces
